# Test system: CD8+ T cells
# Test: In vitro immunogenicity: priming of CD8+ T cells with peptide-MHC/anti-CD28 coated beads (aAPC), tetramer readout
# Format: cell-based, human
# Conditions: CD8+ T cells of healthy HLA-A*02+ donors, three stimulation cycles with high density beads; positive well: at least 1% specific tetramer+ among CD8+ T cells and at least 10x median of negative controls
# Experimental: To perform in vitro stimulations by artificial antigen presenting cells (aAPC) loaded with peptide-MHC complex (pMHC) and anti-CD28 antibody, PBMCs (peripheral blood mononuclear cells) were isolated from fresh HLA-A*02+ buffy coats by using standard density gradient separation medium (PAA, Cölbe, Germany). Buffy coats were obtained from the Katharinenhospital Stuttgart. Isolated PBMCs were incubated overnight in T-cell medium (TCM) for human in vitro priming consisting of RPMI-Glutamax (Invitrogen, Karlsruhe, Germany) supplemented with 10% heat inactivated human AB serum (PAA, Cölbe, Germany), 100 U/ml Penicillin/100 μg/ml Streptomycin (Cambrex, Verviers, Belgium), 1 mM sodium pyruvate (CC Pro, Neustadt, Germany) and 20 μg/ml Gentamycin (Cambrex). CD8+ lymphocytes were isolated using the CD8+ MACS positive selection kit (Miltenyi, Bergisch Gladbach, Germany) according to the manufacturer's instructions. Obtained CD8+ T cells were incubated until use in TCM supplemented with 2.5 ng/ml IL-7 (PromoCell, Heidelberg, Germany) and 10 U/ml IL-2 (Chiron, Munich, Germany). Generation of pMHC/anti-CD28 coated beads, T-cell stimulations and readout was performed as described before (Walter et al., 2003) with minor modifications. Briefly, biotinylated recombinant HLA-A*0201 molecules lacking the transmembrane domain and biotinylated at the carboxy terminus of the heavy chain were produced following a method described by Altman et al., 1996). The purified costimulatory mouse IgG2a anti human CD28 Ab 9.3 (Jung et al., 1987) was chemically biotinylated using Sulfo-N-hydroxysuccinimidobiotin as recommended by the manufacturer (Perbio, Bonn, Germany). 5.60 μm large streptavidin coated polystyrene particles beads were used (Bangs Laboratories, Illinois/USA). pMHC was used as positive and negative controls were A*0201/MLA-001 (peptide […] from modified Melan-A/MART-1) and A*0201/DDX5-001 ([…] from DDX5), respectively.
# 800,000 beads/200 μl were coated in 96-well plates in the presence of 600 ng biotin anti-CD28 plus 200 ng relevant biotin-pMHC (high density beads) or 2 ng relevant plus 200 ng irrelevant (pMHC library) MHC (low density beads). Stimulations were initiated in 96-well plates by conincubating 1×10^6 CD8+ T cells with 2×10^5 washed coated beads in 200 μl TCM supplemented with 5 ng/ml IL-12 (PromoCell) for 3-4 days at 37° C. Half of the medium was then exchanged by fresh TCM supplemented with 80 U/ml IL-2 and incubating was continued for 3-4 days at 37° C. This stimulation cycle was performed for a total of three times. Finally, tetrameric analyses were performed with fluorescent MHC tetramers (produced as described by (Altman et al., 1996)) plus antibody CD8-FITC clone SK1 (BD, Heidelberg, Germany) on a FACSCalibur or a LSR II flow cytometer (BD). Peptide specific cells were calculated as percentage of total CD8+ T cells. Evaluation of tetrameric analysis was performed using the software FCS Express (De Novo Software). In vitro priming of specific tetramer+ CD8+ lymphocytes was detected by appropriate gating and by comparing to negative control stimulations.
# Results shown have been obtained by stimulation of CD8+ cells with high density beads. As different human serum lots may highly affect the immunogenicity results, only assays in which one and the same serum lot was used, were evaluated together.
row,Sequence,Immunogenicity detected
1,"AIIDGVESV (listed as Homo sapiens) [PTP-003, PTPRZ1-derived tumor associated peptide, HLA A*02]",Yes
2,"ALTTLMHQL (listed as Homo sapiens) [PTP-001, PTPRZ1-derived tumor associated peptide, HLA A*0205]",Yes
3,"FLLPDTDGL (listed as Homo sapiens) [PTP-004, PTPRZ1-derived tumor associated peptide, HLA A*02]",Yes
4,"FLYKVILSL (listed as Homo sapiens) [PTP-002, PTPRZ1-derived tumor associated peptide, HLA A*02]",Yes
5,"KVFAGIPTV (listed as Homo sapiens) [PTP-005, PTPRZ1-derived tumor associated peptide, HLA A*02]",Yes
6,"SLWAGVVVL (listed as Homo sapiens) [CHI-001, CHI3L2-derived tumor associated peptide, HLA A*02]",Yes

# From US10709735B2, “Immunotherapy against neuronal and brain tumors” (IMMATICS BIOTECHNOLOGIES GMBH, priority 2007, dated 2020)
